Assay results: ChEMBL document CHEMBL1141243, “Antioxidant and cytotoxic activities of xanthones from Cudrania tricuspidata” (Bioorg Med Chem Lett, 2005)
The source made the active and inactive calls. The calls are words filed in the database; no cut-off is given here.

Key:
[1] = test system: Radical scavenging activity; assay: Hydroxyl radical scavenging activity of Cudriana tricuspidata extracts; assay type: functional
[2] = test system: Radical scavenging activity; assay: Superoxide radical scavenging activity of Cudriana tricuspidata extracts; assay type: functional, Maclura tricuspidata
[3] = test system: Radical scavenging activity; assay: DPPH radical scavenging activity of Cudriana tricuspidata extracts; assay type: functional, Maclura tricuspidata
A549 = assay: Cytotoxicity against human cancer A549 cell line by MTT assay; assay type: functional; settings: read-out: LD50 (the source's name)
AGS = assay: Cytotoxicity against human cancer AGS cell line by MTT assay; assay type: functional; settings: read-out: LD50 (the source's name)
HT-29 = assay: Cytotoxicity against human cancer HT29 cell line by MTT assay; assay type: functional; settings: read-out: LD50 (the source's name)
HL-60 [4] = assay: Cytotoxic activity in HL60 by DNA fragmentation assay; assay type: functional, cell-based; settings: Homo sapiens
SK-OV-3 = assay: Cytotoxicity against human cancer SKOV3 cell line by MTT assay; assay type: functional; settings: read-out: LD50 (the source's name)
HL-60 [5] = assay: Cytotoxicity against human cancer HL60 cell line by MTT assay; assay type: functional; settings: read-out: LD50 (the source's name)

Structure (SMILES)	IC50 [1] [µM]	IC50 [2] [µM]	IC50 [3] [µM]	CC50 (A549) [µM]	CC50 (AGS) [µM]	CC50 (HT-29) [µM]	Activity (HL-60 [4])	CC50 (SK-OV-3) [µM]	CC50 (HL-60 [5]) [µM]
Cc1c(C)c2c(c(C)c1O)CCC(C)(C(=O)O)O2 (stereo not given) [TROLOX]	48.2	33.6	10.6	–	–	–	–	–	–
C=CC(C)(C)c1c(O)cc(O)c2c(=O)c3c(CC=C(C)C)c(OC)c(O)cc3oc12 [CUDRAXANTHONE C]	24.3	85.1	> 200	61.7	49.5	50.7	Active	73.5	40.8
C=CC(C)(C)c1c(O)c(CC=C(C)C)c2oc3cc(O)c(O)cc3c(=O)c2c1O [MACLURAXANTHONE B]	74.1	47.8	15.4	25.8	15.2	28	Active	23.1	29.5
C=CC(C)(C)c1c(O)cc2oc3c(CC=C(C)C)c(O)c(O)cc3c(=O)c2c1O [CUDRAXANTHONE L]	50.3	23.6	13.7	33.5	3.9	11.4	Active	38	8.6
COc1cccc2c1C(=O)c1c(O)c3c(c(O)c1C2=O)C[C@@](O)(C(=O)CO)C[C@@H]3O[C@H]1C[C@H](N)[C@H](O)[C@H](C)O1 [DOXORUBICIN]	–	–	–	1.3	1.2	1.8	–	14.2	1.1
C=CC(C)(C)c1c(OC)cc(O)c2c(=O)c3ccc(O)c(O)c3oc12 [ISOCUDRANIAXANTHONE B]	101	29.5	31.8	57.8	43.9	65	Active	71.3	45.2
C=CC(C)(C)c1c(OC)cc(O)c2c(=O)c3c(CC=C(C)C)c(O)c(O)cc3oc12 [CUDRAXANTHONE D]	25.2	92.8	17.4	16.3	4.7	20.7	Active	23.8	6.2
C=CC(C)(C)c1c(O)cc(O)c2c(=O)c3cc(O)c4c(c3oc12)C=CC(C)(C)O4	55.5	64.5	> 200	61.9	44.7	46.3	Active	70.4	35.9
C=CC(C)(C)c1c(O)cc(O)c2c(=O)c3c(CC=C(C)C)c(O)c(O)cc3oc12 [CUDRATRICUSXANTHONE A]	21.2	51	21.3	45.8	32.8	41.4	Active	43.2	32.8
CC(C)=CCc1c(O)c(O)cc2c(=O)c3c(O)c4c(cc3oc12)OC(C)C4(C)C (stereo not given) [CUDRAXANTHONE M]	42.6	26	10.4	11.8	4.1	12.1	Active	14.6	8.2
